Patent publication US9675592B2, “Methods and compositions for bacteria infections” (priority 2013, dated 2017)
Values after ≈ are worked out from the molar mass of the structure shown. Values joined by “and” are separate entries in the source; they are usually repeats but may differ in a detail not shown here. Identical values can stand only once. Like-named read-outs stand apart in the source and are kept apart here.

Legend:
VraR = VraR (Staphylococcus aureus, UniProt Q7A4R9); assay: biochemical; format: binding; details: for Kd / RUmax VraR: His-tagged VraR; for Kd: NB = No Binding
Chain of VraR (Q7A4R9 whole entry, the tested form may be a part): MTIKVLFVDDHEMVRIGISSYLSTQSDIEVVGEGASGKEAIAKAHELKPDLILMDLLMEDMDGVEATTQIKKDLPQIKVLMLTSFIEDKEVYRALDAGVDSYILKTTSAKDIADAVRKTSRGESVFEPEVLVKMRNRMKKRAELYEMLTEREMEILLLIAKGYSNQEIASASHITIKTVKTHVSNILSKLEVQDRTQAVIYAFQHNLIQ

[1] = target: cytoplasmic domain of VraS (VraS-C) (Staphylococcus aureus, UniProt Q99SZ7); assay: biochemical; format: binding
Chain of cytoplasmic domain of VraS (VraS-C) (Q99SZ7 70-347): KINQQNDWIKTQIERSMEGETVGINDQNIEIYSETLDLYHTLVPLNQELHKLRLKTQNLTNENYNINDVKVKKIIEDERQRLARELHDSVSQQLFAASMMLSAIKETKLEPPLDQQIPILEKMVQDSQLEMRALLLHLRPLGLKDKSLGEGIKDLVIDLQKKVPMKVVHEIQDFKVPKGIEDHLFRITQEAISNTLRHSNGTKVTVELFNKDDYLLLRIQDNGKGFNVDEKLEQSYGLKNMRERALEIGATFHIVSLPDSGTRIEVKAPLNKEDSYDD

[2] = target: PurC (unrelated protein, control) (Bacillus anthracis, UniProt Q81ZH5); format: binding; details: read-out: KD PurC (control)
Chain of PurC (unrelated protein, control) (Q81ZH5 whole entry, looked up): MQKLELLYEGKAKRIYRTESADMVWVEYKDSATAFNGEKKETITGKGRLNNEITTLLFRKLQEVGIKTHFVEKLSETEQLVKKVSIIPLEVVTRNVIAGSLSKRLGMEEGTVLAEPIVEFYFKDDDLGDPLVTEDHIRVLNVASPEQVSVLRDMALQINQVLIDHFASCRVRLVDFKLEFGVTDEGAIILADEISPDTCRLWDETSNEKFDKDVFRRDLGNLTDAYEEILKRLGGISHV

[3] = test system: vraSR promoter (Pvra-lux reporter in strain 923); assay: Primary screen, relative luminescence (vraSR expression)
[4] = test system: test strain 923 pPvra-lux (USA300 MRSA); assay: Primary screen, relative growth in presence of oxacillin; details: compound 10 μM with oxacillin 2 μg/mL, absorbance 24 h, <0.50 = dead cells = hit
[5] = test system: vraSR promoter (Pvra-lux reporter in strain 923); format: cell-based, Staphylococcus aureus
Description: In the secondary screen each microtiter plate contained either cells in TSB alone (16 replicates), cells with oxacillin (2 μg/mL, 31 replicates), or cells with test compound and oxacillin (2 μg/mL, 49 wells). Each compound was assayed in four separate biological replicates. […]

[6] = test system: test strain (923 pPvra-lux); assay: Growth inhibition by compound alone (maximum non-growth-inhibitory concentration); format: cell-based, Staphylococcus aureus; details: compound alone; maximum concentration where it did NOT inhibit growth
multiple strains of MRSA = assay: MICs (minimal inhibitory concentrations) vs multiple strains of MRSA; format: cell-based, Staphylococcus aureus; details: compound at 0.25 mg/L
[7] = test system: test strain 923 pPvra-lux; assay: Secondary screen / synergy confirmation of Top 40, relative growth with oxacillin; format: cell-based, Staphylococcus aureus; details: Top 40 library, compound at maximum non-GI conc
Description: In the secondary screen each microtiter plate contained either cells in TSB alone (16 replicates), cells with oxacillin (2 μg/mL, 31 replicates), or cells with test compound and oxacillin (2 μg/mL, 49 wells). Each compound was assayed in four separate biological replicates.
Synergy Confirmation of “Top 40”. […]

[8] = test system: vanA containing VRSA strain VRS2; details: vancomycin alone; cited from earlier work
[9] = test system: vanA containing VRSA strain VRS1; details: vancomycin alone; cited from earlier work
[10] = test system: vancomycin intermediate resistant Staphylococcus aureus strain, VISA 2283; details: vancomycin alone, VISA 2283, cited from earlier work
[11] = test system: hetero VISA isolate, hVISA 2275; details: vancomycin alone; hVISA 2275; cited from earlier work
[12] = new run with His-tagged VraS, NB = No Binding, read-out: KD VraS

Cc1ccc(-c2nnc(NC(=O)c3ccccc3Cl)o2)c(C)c1 [F2518-0150]
Kd (VraR): > 100 µM | Kd [1, 12]: > 100 µM | Kd [2]: > 100 µM

Cc1ccc(-c2nnc(NC(=O)c3nc4ccccc4s3)o2)c(C)c1 [F2518-0183]
Kd (VraR): > 100 µM | Kd [1, 12]: > 100 µM | Kd [2]: > 100 µM

Cc1ccc(C)c(-c2nnc(NC(=O)c3nc4ccccc4s3)o2)c1 [F2518-0327]
RUmax VraR (VraR): 46.5 ± 2.9 | Kd (VraR): 15.4 ± 6.4 µM | binding to VraR (VraR; SPR): bound | Kd [1, 12]: > 100 µM | Kd [2]: > 100 µM

Cc1ccc(C)c(-c2nnc(NC(=O)c3cc(Cl)sc3Cl)o2)c1 [F2518-0360]
Kd (VraR): > 100 µM | Kd [1, 12]: > 100 µM | Kd [2]: > 100 µM

Cc1ccc(C)c(-c2nnc(NC(=O)c3ccccc3F)o2)c1 [F2518-0382]
Kd (VraR): > 100 µM | Kd [1, 12]: > 100 µM | Kd [2]: > 100 µM

O=C(Nc1nnc(-c2ccc(Br)cc2)o1)c1ccc(Cl)s1 [F2518-0474]
RL avg (relative luminescence) [3]: −0.01 | RUmax VraR (VraR): 27.5 ± 2.4 | Kd (VraR): 22.2 ± 5.4 µM | binding to VraS-C ([1]; SPR): bound | RUmax VraS ([1]; new run with His-tagged VraS): 52.9 ± 12.8 | Kd [1, 12]: 79.5 ± 34.6 µM | RG avg (relative growth) [4]: 0.01 | Kd [2]: > 100 µM

O=C(Nc1nnc(-c2ccc(Br)cc2)o1)c1cccc(C(F)(F)F)c1 [F2518-0477]
Kd (VraR): > 100 µM | Kd [1, 12]: > 100 µM | Kd [2]: > 100 µM

O=C(Nc1nnc(-c2ccc(Br)cc2)o1)c1sc2ccccc2c1Cl [F2518-0484]
Kd (VraR): > 100 µM | Kd [1, 12]: > 100 µM | Kd [2]: > 100 µM

CSc1cccc(-c2nnc(NC(=O)c3nc4ccccc4s3)o2)c1 [F2645-0188]
RL Ox avg ([5]; Top 40 library, with oxacillin, compound at maximum non-GI conc): 0.05 | vraSR repressing synergist ([5]; overall class from syn and rep): 1. confirmed | maximum non-GI conc [6]: 40 µg/mL | RL avg (relative luminescence) ([3]; primary screen, compound 10 μM with oxacillin 2 μg/mL, <0.50 = vraSR repressed = hit): 0.37 | Kd (VraR): > 100 µM | Ox MIC in presence of compound (multiple strains of MRSA; isolate 923, SCCmec IV, ST 8): 2 µg/mL | Ox MIC in presence of compound (multiple strains of MRSA; isolate 1176, SCCmec II, ST 231): <0.5 µg/mL | Ox MIC in presence of compound (multiple strains of MRSA; isolate 2169, SCCmec IV, ST 72): 0.5 µg/mL | Ox MIC in presence of compound (multiple strains of MRSA; isolate 8004-01, SCCmec III, ST 239): 64 µg/mL | Ox MIC in presence of compound (multiple strains of MRSA; isolate 8010-01, SCCmec IV, ST 8): 0.5 µg/mL | Ox MIC in presence of compound (multiple strains of MRSA; isolate 8227-01, SCCmec IV, ST 87): 0.5 µg/mL | Ox MIC in presence of compound (multiple strains of MRSA; isolate 11095, SCCmec II, ST 105): 32 µg/mL | Ox MIC in presence of compound (multiple strains of MRSA; isolate 13113, SCCmec II, ST 5): <0.13 µg/mL | Ox MIC in presence of compound (multiple strains of MRSA; isolate 13354, SCCmec IV, ST 5): <0.13 µg/mL | Ox MIC in presence of compound (multiple strains of MRSA; isolate 14315, SCCmec IV, ST 1): <0.5 µg/mL | Ox MIC in presence of compound (multiple strains of MRSA; isolate Q2461, SCCmec VT, ST 59): 0.25 µg/mL | Kd ([1]; His-tagged VraS-C, SPR, read-out: KD): 56.1 ± 16.3 µM | binding to VraS-C ([1]; SPR): Binds | RUmax VraS ([1]; new run with His-tagged VraS): (74.1 ± 10.7) | RUmax VraS ([1]; previous run with untagged VraS): 325 ± 33 | Kd ([1]; untagged VraS-C protein, SPR, read-out: KD): 13.2 ± 3.2 µM | RG Ox avg [7]: 0.03 | RG avg (relative growth) [4]: 0.03 | Kd [2]: > 100 µM

CS(=O)(=O)c1ccc(-c2nnc(NC(=O)c3ccc(Cl)s3)o2)cc1 [F2645-0790]
Kd (VraR): > 100 µM | Kd [1, 12]: > 100 µM | Kd [2]: > 100 µM

Cc1cc2c(C(C)C)c(O)c(O)c(C=O)c2c(O)c1-c1c(C)cc2c(C(C)C)c(O)c(O)c(C=O)c2c1O [Gos, Gossypol, reference compound]
Kd (VraR): > 100 µM | Kd [1, 12]: > 100 µM

CN[C@H](CC(C)C)C(=O)N[C@H]1C(=O)N[C@@H](CC(N)=O)C(=O)N[C@H]2C(=O)N[C@H]3C(=O)N[C@H](C(=O)N[C@H](C(=O)O)c4cc(O)cc(O)c4-c4cc3ccc4O)[C@H](O)c3ccc(c(Cl)c3)Oc3cc2cc(c3O[C@@H]2O[C@H](CO)[C@@H](O)[C@H](O)[C@H]2O[C@H]2C[C@](C)(N)[C@H](O)[C@H](C)O2)Oc2ccc(cc2Cl)[C@H]1O [Van, Vancomycin]
MIC Van [8]: 16 µg/mL (≈ 11 µM) | MIC Van [9]: 1024 µg/mL (≈ 707 µM) | MIC Van [10]: 8 µg/mL (≈ 5.52 µM) | MIC Van ([10]; listed as vancomycin): 16 µg/mL and 8 µg/mL | MIC Van [11]: 4 µg/mL (≈ 2.76 µM)
